In patent publication US12274702B2, “Nasal compositions comprising alcaftadine” (ALKEM LABORATORIES LIMITED, priority 2021, dated 2025):

Columns and labels:
[1] = Pharmacokinetics after intranasal administration in rabbits; assay type: in vivo, New Zealand white rabbits
Experimental: The pharmacokinetic profiles for Example 1A, 1B and 1C as well as an olapatdine nasal formulation were each determined on 6 male New Zealand white rabbits. The olopatadine nasal formulation (0.6% w/v) was prepared from Olopat Max® 0.7% w/v, where Olopat Max® was diluted to 0.6% w/v by using purified water.
(§1) The study was carried out on total 24 male New Zealand white rabbits, which were segregated into four groups (G1 to G4, 6 rabbits/group). Mild anaesthesia was induced in all rabbits by inhalation of 2% isoflurane. Three groups (G1-G3) of anaesthetized rabbits were intranasally administered 250 μL of alcaftadine once daily using the formulations of Examples 1A, 1B, and 1C. A comparator, 250 μL of olopatadine at a concentration of 0.6% w/v, was intranasally administered once-daily to a fourth group G4 of anaesthetized rabbits.
Sampling details for the test and reference formulations: Approximately 0.5 mL of blood sample from each rabbit was withdrawn via marginal car vein into pre-labelled Eppendorf tubes containing 10% EDTA as an anticoagulant. Blood samples were withdrawn at 0 min, 5 min, 10 min, 15 min, 30 min, 60 min, 120 min, 240 min, 480 min and 1440 min after administration of test and reference formulations.
(§2) Procedure for sample preparation: Collected blood samples were mixed gently and kept on crushed ice. Plasma samples were separated after centrifugation at 3500 rpm for 10 min at 4° C. Plasma separation was carried out within 30 min of sample collection and stored at −70±10° C. The animals were euthanized by intravenous administration of sodium thiopental injection overdose and nasal epithelium was collected. Half of the tissues of nasal epithelium were homogenized using phosphate buffered solution (20% homogenation) for quantification of alcaftadine and olopatidine. The remaining half of the tissues were stored in 10% neutral buffered formalin for detailed gross histopathological examination such as necrosis, inflammation or any changes during necropsy.
Rabbit plasma and nasal epithelial tissue concentrations of alcaftadine or olopatidine were determined using a fit-for-purpose LC-MS/MS method with LLOQ of 0.500 ng/ml or 0.250 ng/mL, respectively. The pharmacokinetic parameters were evaluated using Phoenix WinNonlin® Ent-Version 8.0 by non-compartmental analysis.

[2] = Nasal irritation and histopathology of nasal epithelium after intranasal administration in rabbits; assay type: in vivo, New Zealand white rabbits; conditions: doses 0.312 mg, 0.625 mg and 1.25 mg, all three groups
Experimental: as §1, §2

[3] = single intranasal administration, doses 0.625 to 1.25 mg, rabbits

| SMILES | plasma concentration / systemic exposure ([1]; intranasal, rabbits) | onset of action versus intranasal olopatadine (from Tmax) ([1]; intranasal, rabbits, olopatadine 1.5 mg) | area under the curve (AUC0-24h) [1, 3] | peak plasma concentrations (Cmax) [1, 3] | time to achieve maximum concentration (Tmax) ([1]; single intranasal instillation, dose 0.625 mg (250 μL of Example 1B), rabbit plasma) | signs or symptoms of inflammation or irritation [2] | Tmax ([1]; male, New Zealand white, inhaled or intranasal, single intranasal administration of 1.5 mg (250 μL, 0.6% w/v), rabbit plasma, read-out: time to reach peak concentration (Tmax)) |
| --- | --- | --- | --- | --- | --- | --- | --- |
| CN1CCC(=C2c3ccccc3CCn3c(C=O)cnc32)CC1 [Alcaftadine, 6,11-dihydro-11-(1-methyl-4-piperidinylidene)-5H-imidazo[2,1-b][3]benzazepine-3-carboxaldehyde] | dose proportional with overall low systemic exposure | faster onset of action than intranasal olopatadine | dose proportional | dose proportional | 4.8 min | no signs or symptoms of inflammation or irritation were observed |  |
| CN(C)CC/C=C1/c2ccccc2COc2ccc(CC(=O)O)cc21 [olopatadine] |  |  |  |  |  |  | 22.8 min |
